Source: US20100093603A1, “USE OF ORGANIC COMPOUNDS” (priority 2008, published 2010)

What was measured:
Assay type in all cases: in vivo, Sprague Dawley rats
[1] = tested on: cardiac myocytes; test: Cardiac myocyte apoptosis in heart sections (TUNEL assay and cleaved caspase-3 staining); settings: STZ-diabetic rats; for Caspase-3 staining, Mean / TUNEL assay, Mean: 7 days of treatment, heart sections; for Caspase-3 staining, Mean: control 7, diabetic no treatment 28; for TUNEL assay, Mean: control 8.5, diabetic no treatment 33
[2] = tested on: intracellular Ang II (iAng II) in cardiac myocytes; test: Measurement of iAng II in cardiac myocytes isolated from STZ-diabetic rat hearts (competitive ELISA); settings: for iAng II levels in cardiac myocytes: STZ-diabetic rats treated daily for 7 days (insulin 2-5 U BID SC; candesartan 1 mg/kg IP; aliskiren 30 mg/kg oral; benazepril 10 mg/kg oral), mean±SE, diabetic untreated 0.59±0.01, control 0.06±0.01; for iAng II synthesis, blocked or not (result in words): diabetic rats, summary statement
Method: (§1) Diabetes is induced by a single injection of streptozotocin (STZ, 65 mg/kg body weight, IP) dissolved in 0.1 M sodium citrate buffered saline (pH 4.5), in adult male Sprague Dawley rats (250-300 g). Control animals receive buffered saline alone. Diabetes is confirmed by sustained blood glucose levels >15 mmol/L, as determined 48 h after STZ injection and on alternate days thereafter. […] After 7 days, animals are weighed and anesthetized using ketamine/xylazine (50/5 mg/kg). Hearts are isolated and weighed before perfusion, the latter using the Langendorff methodology.
Hearts are isolated and perfused with Krebs-Henseleit bicarbonate buffer, followed by digestion with collagenase II (0.1% w/v). Myocytes are separated from non-myocytes by differential centrifugation at 25×g. […] The pellet containing myocytes is processed for Ang II extraction, as described by Singh et al in Am J Physiol Heart Circ Physiol 293:H939-H948, 2007. Cells were lysed in ice-cold 1 M acetic acid, containing a protease inhibitor cocktail (Sigma), by sonication (2 pulses of 5 sec each). The lysate is sedimented at 20,000×g for 10 min and the supernatant is dried in a vacufuge, followed by reconstitution in 1% acetic acid. The samples are applied to a conditioned DSC-18 column (Supelco), washed, and eluted with methanol. The eluted samples are dried and reconstituted in PBS for ELISA. For isolation of Ang II from plasma, an equal volume of 2% acetic acid is added to plasma, followed by filtration through Amicon Ultra-15 filters. The filtrate is applied to DSC-18 columns and Ang II is eluted, as described for the cell lysates. […] Ang II is measured by quantitative, competitive ELISA, using a specific anti-Ang II antibody (Peninsula Labs), as previously described in Am J Physiol Heart Circ Physiol 293:H939-H948, 2007. ELISA is performed on protein-A and anti-Ang II antibody-coated 96-well dishes. Competitive binding of synthetic biotinylated Ang II, in the presence of the extracted peptide, is detected with streptavidin-horseradish peroxidase conjugate. A standard curve, generated from binding of a constant amount of biotinylated Ang II with increasing concentrations of non-biotinylated synthetic Ang II, is used to calculate the concentration of the peptide in the sample. The concentration of Ang II in the cell lysates is expressed as fmoles per milligram of heart wt and in plasma as fmoles per milligram of plasma proteins.
Ang II levels in cardiac myocytes, which are isolated after perfusion of the hearts and enzymatic dispersion, correspond to Ang II present intracellularly. To determine the source of iAng II, i.e., intracellular synthesis or AT1-mediated internalization, one group of diabetic animals is treated with the AT1 antagonist candesartan to prevent receptor-mediated uptake.

[3] = tested on: Cardiac interstitial fibrosis; test: Cardiac interstitial fibrosis by Masson's trichrome staining, graded on a scale of 0-4; settings: for degree of fibrosis (average grade): STZ-diabetic rats after one week of diabetes, scale 0-4, diabetic untreated grade 1.5, control grade 0; for diabetes-induced cardiac fibrosis (result in words): diabetic rats, summary statement
Method: as §1
Cardiac interstitial fibrosis is determined by Masson's trichrome staining on 5 μm paraffin-embedded sections. The extent and degree of fibrosis is graded on a scale of 0-4. Grade 0 signifies no apparent collagen fiber proliferation except for small islets of fibrous tissue around the capillaries, as well as an intercellular single layer of collagenous tissue, as in normal myocardium. Focal and minimal fibrosis is graded as 1, mild patchy fibrosis as grade 2, moderate diffuse fibrosis as grade 3 and the most prominent fibrosis, covering major area of the specimen, is classified as 4. A minimum of three sections per heart, with five fields per section, and three animals per experimental group, are analyzed and results presented as an average grade.
After one week of diabetes, the overall staining for fibrosis is enhanced in hearts from diabetic rats (grade 1.5), compared to control animals (grade 0). […] Candesartan and benazepril reduces the degree of fibrosis (grade 0.43 and 0.88, respectively), whereas aliskiren has a more pronounced reduction of fibrosis (grade 0.25) in diabetic rat hearts.

[4] = tested on: Superoxide production in the hearts; test: Reactive oxygen species detection in the heart by dihydroethidium (DHE) staining; settings: STZ-diabetic rats; for DHE fluorescence, Mean: 7 days of treatment, frozen heart sections, 10 μM DHE, control 17.65, diabetic no treatment 68.6; for superoxide production / oxidative stress (result in words): DHE staining of heart sections

With `COCCCOc1cc(C[C@@H](C[C@H](N)[C@@H](O)C[C@H](C(=O)NCC(C)(C)C(N)=O)C(C)C)C(C)C)ccc1OC` [aliskiren, 2(S),4(S),5(S),7(S)—N-(3-amino-2,2-dimethyl-3-oxopropyl)-2,7-di(1-methylethyl)-4-hydroxy-5-amino-8-[4-methoxy-3-(3-methoxy-propoxy)phenyl]-octanamide] the “Caspase-3 staining, Mean” value [1] was 18 positive cells/mm^2, the “TUNEL assay, Mean” value [1] was 21.3 positive cells/mm^2 and the “iAng II levels in cardiac myocytes” value [2] was 0.12±0.02 fmole/mg heart wt. For the same compound, the “iAng II synthesis, blocked or not (result in words)” value [2] was “blocked”, the “degree of fibrosis (average grade)” value [3] was 0.25 grade and the “diabetes-induced cardiac fibrosis (result in words)” value [3] was “complete inhibition”. The “DHE fluorescence, Mean” value [4] was 22.7 Arbitrary units and the “superoxide production / oxidative stress (result in words)” value (shortened to “superoxide production / oxidative stress”) [4] was “blocks it completely”.

`CCOC(=O)[C@H](CCc1ccccc1)N[C@H]1CCc2ccccc2N(CC(=O)O)C1=O` [benazepril] was tested, and the “Caspase-3 staining, Mean” value [1] was 21 positive cells/mm^2, the “TUNEL assay, Mean” value [1] was 27 positive cells/mm^2 and the “iAng II levels in cardiac myocytes” value [2] was 0.55±0.02 fmole/mg heart wt. For the same compound, the “iAng II synthesis, blocked or not (result in words)” value [2] was “not”, the “degree of fibrosis (average grade)” value [3] was 0.88 grade and the “diabetes-induced cardiac fibrosis (result in words)” value [3] was “partially inhibited”. For the same compound, the “DHE fluorescence, Mean” value [4] was 51.4 Arbitrary units and the “superoxide production / oxidative stress” value [4] was “reduces oxidative stress”.

For `CCOc1nc2cccc(C(=O)O)c2n1Cc1ccc(-c2ccccc2-c2nnn[nH]2)cc1` [candesartan], the “Caspase-3 staining, Mean” value [1] was 18.5 positive cells/mm^2, the “TUNEL assay, Mean” value [1] was 24 positive cells/mm^2 and the “iAng II levels in cardiac myocytes” value [2] was 0.43±0.05 fmole/mg heart wt. The “degree of fibrosis (average grade)” value [3] was 0.43 grade and the “DHE fluorescence, Mean” value [4] was 37.7 Arbitrary units.

With “insulin: type 1 diabetes therapeutic agent, used to normalize blood glucose in STZ-treated rats” the “Caspase-3 staining, Mean” value [1] was 14 positive cells/mm^2, the “TUNEL assay, Mean” value [1] was 20 positive cells/mm^2 and the “number of apoptotic cells (result in words)” value ([1]; by both TUNEL assay and caspase-3 staining) was “reduces the number of apoptotic cells, but does not prevent apoptosis completely”. The “degree of fibrosis (average grade)” value [3] was 0.04 grade, the “DHE fluorescence, Mean” value [4] was 26.7 Arbitrary units and the “superoxide production / oxidative stress” value [4] was “prevented”.
